Several values for one entry are separate records, joined by “and”; a condition that tells them apart may be missing. Identical values can stand only once. Entries after “also recorded” stand apart in the source; their conditions may differ.
Key:
[1] = molecular target: T1, CFTR (Homo sapiens, UniProt P13569); experiment: Short-circuit current in FRT cells expressing wild type CFTR; type: cell-based; details: forskolin 20 µM stimulated
T1 construct: expressed in transfected cells; host or cells: FRT cells
T1 sequence (P13569 whole entry, species assumed): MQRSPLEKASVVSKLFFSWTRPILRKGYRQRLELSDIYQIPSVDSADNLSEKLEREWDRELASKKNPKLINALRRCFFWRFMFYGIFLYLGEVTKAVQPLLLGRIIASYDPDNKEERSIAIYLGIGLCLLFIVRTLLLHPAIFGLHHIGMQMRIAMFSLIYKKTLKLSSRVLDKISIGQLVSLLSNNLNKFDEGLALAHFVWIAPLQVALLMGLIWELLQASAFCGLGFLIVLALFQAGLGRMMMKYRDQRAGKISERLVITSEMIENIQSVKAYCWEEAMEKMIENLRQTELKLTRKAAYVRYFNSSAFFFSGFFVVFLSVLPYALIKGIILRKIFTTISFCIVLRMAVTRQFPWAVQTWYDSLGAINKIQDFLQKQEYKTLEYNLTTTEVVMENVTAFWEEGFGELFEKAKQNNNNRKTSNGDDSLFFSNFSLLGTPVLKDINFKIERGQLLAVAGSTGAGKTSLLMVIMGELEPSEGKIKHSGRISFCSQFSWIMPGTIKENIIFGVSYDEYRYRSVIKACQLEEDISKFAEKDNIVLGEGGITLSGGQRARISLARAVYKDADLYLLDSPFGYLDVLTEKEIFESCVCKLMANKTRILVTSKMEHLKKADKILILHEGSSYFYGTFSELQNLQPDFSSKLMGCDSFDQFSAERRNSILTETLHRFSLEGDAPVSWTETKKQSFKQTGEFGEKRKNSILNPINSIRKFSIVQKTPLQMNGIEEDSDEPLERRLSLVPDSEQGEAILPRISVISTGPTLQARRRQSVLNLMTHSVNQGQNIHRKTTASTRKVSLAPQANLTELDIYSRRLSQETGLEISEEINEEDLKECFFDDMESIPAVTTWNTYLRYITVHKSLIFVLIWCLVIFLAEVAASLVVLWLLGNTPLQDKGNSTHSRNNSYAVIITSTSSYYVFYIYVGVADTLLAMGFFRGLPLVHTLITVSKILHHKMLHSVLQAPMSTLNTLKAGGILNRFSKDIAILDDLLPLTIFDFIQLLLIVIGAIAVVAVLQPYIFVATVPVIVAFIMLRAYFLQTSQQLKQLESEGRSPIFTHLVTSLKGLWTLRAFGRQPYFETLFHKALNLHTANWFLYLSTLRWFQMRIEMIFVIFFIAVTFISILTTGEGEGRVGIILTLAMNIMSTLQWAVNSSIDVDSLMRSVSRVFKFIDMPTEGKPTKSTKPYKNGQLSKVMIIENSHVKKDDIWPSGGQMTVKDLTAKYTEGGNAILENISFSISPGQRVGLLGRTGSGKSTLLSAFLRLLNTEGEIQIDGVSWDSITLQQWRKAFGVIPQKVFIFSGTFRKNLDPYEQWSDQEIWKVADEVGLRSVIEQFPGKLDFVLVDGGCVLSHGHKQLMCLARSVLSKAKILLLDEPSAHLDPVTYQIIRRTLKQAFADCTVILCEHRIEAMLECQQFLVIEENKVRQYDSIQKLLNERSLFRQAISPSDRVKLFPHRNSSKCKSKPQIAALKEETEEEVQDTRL
Description: Snapwell inserts containing TMEM16A-expressing FRT cells or T84 cells were mounted in Ussing chambers (Physiologic Instruments, San Diego, CA). Activators and inhibitors (herbal formulation, eugenol, ionomycin, tannic acid, forskolin, CFTRinh-172, ATP, Eact, T16Ainh-A01) were added to the apical solution and an equal volume of vehicle was added at the same time to the basolateral solution. […] For FRT cells, the hemichambers were filled with a half-Cl^− solution (apical) and the HCO3 ^−-buffered solution (basolateral), and the basolateral membrane was permeabilized with 250 µg/mL amphotericin B. Cells were bathed for a 10 min stabilization period and aerated with 95% O2/5% CO2 at 37°C or room temperature. Short-circuit current was measured using an EVC4000 Multi-Channel V/I Clamp (World Precision Instruments, Sarasota, FL).

[2] = molecular target: T2, human TMEM16A (Homo sapiens, UniProt Q5XXA6); experiment: Short-circuit current in TMEM16A-expressing FRT cells; type: cell-based
T2 sequence (Q5XXA6 1-986): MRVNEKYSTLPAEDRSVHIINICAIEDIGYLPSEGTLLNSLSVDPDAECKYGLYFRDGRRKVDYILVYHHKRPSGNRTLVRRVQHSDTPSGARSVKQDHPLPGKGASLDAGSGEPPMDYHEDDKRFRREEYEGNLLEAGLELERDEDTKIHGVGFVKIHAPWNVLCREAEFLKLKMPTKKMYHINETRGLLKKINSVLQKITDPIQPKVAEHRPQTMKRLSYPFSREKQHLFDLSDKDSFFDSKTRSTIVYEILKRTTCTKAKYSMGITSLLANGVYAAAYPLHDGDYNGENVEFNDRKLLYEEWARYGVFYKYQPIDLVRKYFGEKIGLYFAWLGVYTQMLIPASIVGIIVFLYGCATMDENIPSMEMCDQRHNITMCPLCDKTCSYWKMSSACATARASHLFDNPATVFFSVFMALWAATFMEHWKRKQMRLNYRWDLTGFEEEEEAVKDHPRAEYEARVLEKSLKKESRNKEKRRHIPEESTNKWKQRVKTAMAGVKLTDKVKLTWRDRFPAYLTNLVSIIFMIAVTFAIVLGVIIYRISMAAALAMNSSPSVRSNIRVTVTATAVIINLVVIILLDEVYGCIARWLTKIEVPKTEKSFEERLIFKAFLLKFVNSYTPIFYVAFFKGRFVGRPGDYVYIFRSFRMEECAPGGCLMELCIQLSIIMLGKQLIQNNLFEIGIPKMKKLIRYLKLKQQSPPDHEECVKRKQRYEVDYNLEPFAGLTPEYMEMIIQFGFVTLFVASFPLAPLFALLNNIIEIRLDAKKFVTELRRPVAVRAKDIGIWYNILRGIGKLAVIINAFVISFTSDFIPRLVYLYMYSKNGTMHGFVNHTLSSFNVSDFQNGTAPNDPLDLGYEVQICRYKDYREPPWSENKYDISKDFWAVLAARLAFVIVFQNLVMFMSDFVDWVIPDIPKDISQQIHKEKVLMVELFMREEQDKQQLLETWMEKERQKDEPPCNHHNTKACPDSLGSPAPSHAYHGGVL
Description: (§1) FRT cells stably expressing human TMEM16A and the halide sensor YFP-H148Q/I152L/F46L were generated as described. Cells were plated in 96-well black-walled microplates (Corning Inc., Corning, NY) at a density of 20,000 cells per well in Coon's modified F12 medium supplemented with 5% fetal calf serum, 2 mM L-glutamine, 100 U/mL penicillin and 100 µg/mL streptomycin. T84 cells were cultured in DMEM/Ham's F-12 (1∶1) medium containing 10% FBS, 100 U/ml penicillin and 100 µg/ml streptomycin. A commercially available Thai herbal formulation (Krisanaklan, Osotspa Inc., Bangkapi, Thailand) consists of an ethanol/water (54∶46) extract in which each 100 mL was obtained from 10 g of Aquilaria crassna bark, 33.3 g of clove flower bud, 2 g of Terminalia triptera Stapf bark and 4.8 g of camphor flower bud. HPLC grade solvents were purchased from Fisher Scientific (Fairlawn, VA) and EMD Chemical Inc. (Philadelphia, PA). Eugenol and eugenol analog 2 were purchased from Sigma-Aldrich (St. Louis, MO). Other eugenol analogs were purchased from Fisher Scientific (Pittsburgh, PA).
(§2) Snapwell inserts containing TMEM16A-expressing FRT cells or T84 cells were mounted in Ussing chambers (Physiologic Instruments, San Diego, CA). Activators and inhibitors (herbal formulation, eugenol, ionomycin, tannic acid, forskolin, CFTRinh-172, ATP, Eact, T16Ainh-A01) were added to the apical solution and an equal volume of vehicle was added at the same time to the basolateral solution. Symmetrical HCO3 ^−-buffered solutions were used for T84 cells. For FRT cells, the hemichambers were filled with a half-Cl^− solution (apical) and the HCO3 ^−-buffered solution (basolateral), and the basolateral membrane was permeabilized with 250 µg/mL amphotericin B. Cells were bathed for a 10 min stabilization period and aerated with 95% O2/5% CO2 at 37°C or room temperature. Short-circuit current was measured using an EVC4000 Multi-Channel V/I Clamp (World Precision Instruments, Sarasota, FL).

[3] = cited from earlier work
[4] = system: mouse ileum; experiment: Intestinal smooth muscle contraction, mouse ileal segments ex vivo
Description: Wild type CD1 mice (age 8–10 weeks) were killed by avertin overdose (200 mg/kg). The ileum was removed and washed with ice-cold HCO3 ^−-buffered solution. The ends of the ileal segments were tied with silk thread and connected to a force transducer. Ileal segments were equilibrated for 60 min with a resting force of ∼1 mN, with changes of the bathing solution every 15 min. […] Data were recorded using MP100, Biopac digital acquisition system and analyzed using Acknowledge 3.5.7 software.

[5] = system: hyperpolarization-activated cyclic nucleotide-gated Na+ and K+ channels; set-up: method as in earlier work; details: trigeminal ganglion neurons; ref 27 (Yeon et al.); read-out: IC50 for inhibition of HCN channels; cited from earlier work
[6] = molecular target: T2, human TMEM16A; experiment: Plate-reader YFP fluorescence assay of TMEM16A-mediated I- influx in FRT cells; type: cell-based
Description: as §1, with “HPLC grade solvents were purchased from Fisher Scientific (Fairlawn, VA) and EMD Chemical Inc. (Philadelphia, PA). Eugenol and eugenol analog 2 were purchased from Sigma-Aldrich (St. Louis, MO). Other eugenol analogs were purchased from Fisher Scientific (Pittsburgh, PA).” left out
YFP fluorescence measurements in TMEM16A expressing FRT cells were carried out on a fluorescence plate reader (Optima; BMG Labtech, Durham, NC) equipped with dual syringe pumps and 500±10 nm excitation and 535±15 nm emission filters as described. […] After 10 min incubation, each well was assayed individually for TMEM16A-mediated I^− influx by recording fluorescence continuously (400 ms per point) for 2 s (baseline), followed by addition of 100 µL of a 140 mM I^− solution containing 200 µM ATP. The initial rate of I^− influx was computed from fluorescence data by non-linear regression.

[7] = system: cytoplasmic Ca2+ elevation in FRT cells; experiment: Cytoplasmic Ca2+ measurement (Fluo-4) in FRT cells; type: cell-based; details: Fluo-4 fluorescence, 10 min incubation
Description: FRT cells in 96-well plates were loaded with Fluo-4 NW (Invitrogen, Carlsbad, CA) at 48 h after plating. Fluo-4 fluorescence was measured continuously using a FLUOstar Optima fluorescence plate reader (BMG Labtechnologies) equipped with syringe pump for addition of ATP.

[8] = system: TMEM16A; experiment: Whole-cell patch-clamp on TMEM16A-expressing FRT cells; type: cell-based, human; details: 150 µM eugenol, 5 µM Eact, ±80 mV
Description: Whole-cell recordings were made at room temperature on TMEM16A-expressing FRT cells as described. The pipette solution contained (in mM): 130 CsCl, 0.5 EGTA, 1 MgCl2, 1 Tris-ATP, and10 HEPES (pH 7.2). The bath solution contained (in mM): 140 NMDG-Cl, 1 CaCl2, 1 MgCl2, 10 glucose and 10 HEPES (pH 7.4). TMEM16A was activated by 5 µM Eact and then inhibited by 150 µM eugenol. Whole-cell currents were elicited by applying hyperpolarizing and depolarizing voltage pulses from a holding potential of 0 mV to potentials between −80 mV and +80 mV in 20 mV steps. Currents were digitized, filtered at 5 kHz, and sampled at 1 kHz.

[9] = system: tracheal smooth muscle; set-up: method as in PMID 21077946; details: read-out: IC50 for inhibition of tracheal smooth muscle contraction; cited from earlier work
[10] = system: Ca2+ current in cardiac myocytes; set-up: method as in PMID 15550789; details: read-out: IC50 for inhibition of Ca2+ current; cited from earlier work
[11] = system: CaCC in T84 human colonic epithelial cells; experiment: Short-circuit current in T84 cells (ATP-stimulated native CaCC Cl- current); type: cell-based; details: 100 µM tannic acid
Description: as §2

[12] = rat, oral 40 mg/kg, ref 30 (Lionnet et al.)

## O=C(O)c1ccc(/C=C2\SC(=S)N(c3cccc(C(F)(F)F)c3)C2=O)cc1 [CFTRinh-172, reference compound]
[1]; 10 µM CFTRinh-172
  inhibition of CFTR Cl- current: completely inhibited

## CCc1c(C)nc(SCC(=O)Nc2nc(-c3ccc(OC)cc3)cs2)[nH]c1=O [T16Ainh-A01, reference compound]
[2]; 1 µM
  inhibition of TMEM16A Cl- current by 1 µM T16Ainh-A01: ~50%
[2]; Eact 10 µM, 10 µM T16Ainh-A01
  inhibition of Eact-stimulated TMEM16A Cl- current: completely inhibited; also recorded: totally inhibited

## C=CCc1ccc(O)c(OC)c1 [compound 1, 4-allyl-2-methoxyphenol]
[2]
  extent of inhibition of TMEM16A Cl- conductance: fully inhibited
[2]; FRT, read-out: inhibition of TMEM16A at 1 mM
  inhibition at 1000 µM: > 95%
[2]; IC50 for inhibition of TMEM16A Cl- current, Eact (10 µM)-stimulated short-circuit current, FRT cells
  IC50: 154 µM and ~150 µM
[2]; eugenol added 5 min prior to 1 µM ionomycin, amphotericin B permeabilized, Cl- gradient
  inhibition of ionomycin-activated TMEM16A Cl- current: concentration-dependent inhibition
[1]; eugenol up to 1 mM
  effect on CFTR Cl- conductance: little effect
[3]; intravenous
  serum concentration following intravenous administration: 180000 nM
[3]; [12]
  concentration in brain and spinal cord after oral administration: 2800 nM
  concentration in serum after oral administration: 600 nM
[3]; rats
  serum concentration (similar oral study): 1500 nM
[4]; Mus musculus, read-out: IC50 for inhibition of intestinal smooth muscle contraction
  IC50: ~150 µM
[4]; atropine added initially
  inhibition of ileal contractions following activation by Eact: inhibition
[4]; mouse ileal segments ex vivo
  effect on contraction frequency: small effect
  effect on resting and maximal tone: more marked effect
[4]; mouse ileal segments ex vivo, listed as Eugenol
  inhibition of spontaneous intestinal contractions: strong inhibition
[4]; mouse ileal segments ex vivo, listed as eugenol
  inhibition of spontaneous intestinal contractions: inhibited by eugenol in a dose-dependent manner
[5]
  IC50: 157 µM
[6]; FRT
  inhibition at 200 µM: 51 ± 7%
[7]
  effect on cytoplasmic Ca2+ in response to ATP: did not inhibit
[8]
  block mechanism of TMEM16A chloride current: voltage-independent block
[9]
  IC50: ~600 µM
[10]
  IC50: ~300 µM

## CCCc1ccc(O)c(OC)c1 [compound 5]
[6]
  % inhibition at 200 μM: 38 ± 7%

## tannic acid
[11]
  inhibition of ATP-stimulated CaCC Cl- current: completely inhibited

Source: article PMC3364195, “Fractionation of a Herbal Antidiarrheal Medicine Reveals Eugenol as an Inhibitor of Ca^2+-Activated Cl^− Channel TMEM16A” (PLoS ONE, 2012)
